For experiment [1], the target named is human IL-17A / human IL-17RA (Homo sapiens (Human), UniProt Q16552). Briefly: Human IL-17A biochemical assay (HTRF, blocking of IL-17A binding to IL-17RA). Conditions: 0.4 nM IL-17A, 0.3 nM IL-17RA, max compound concentration 10 uM. A digest of the protocol: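 HTRF competition: 0.4 nM recombinant human IL-17A pre-incubated 3 h at room temperature with compound (top 10 uM, 2.7-fold, 10 points) in HEPES pH 7.5 buffer, then 0.3 nM IL-17RA added for 1 h, then anti-6His-Tb/anti-human IgG-XL665 detection for 1 h.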

The test system of experiment [2] is IL-17-induced GROα secretion from HT-29 cells. Briefly: GROα release assay in human colorectal adenocarcinoma epithelial cell (HT-29, ELISA). Format: cell-based. Conditions: Homo sapiens, HT-29, 48 h, 10 ng/mL IL-17A, highest concentration 10 μM, read-out: Cellular assay HT29 cell/CXCL1 IC50. The method in brief:
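HT-29 cells were exposed 48 h at 37°C to IL-17A (final 10 ng/mL) preincubated 15 min with compound (4-fold dilutions, top 10 μM). Secreted GROα was quantified by ELISA against a standard curve, and IC50 obtained by four-parameter fitting.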

We go through 19 molecules from patent US20250154138A1, “Small Molecule IL-17A Modulators” (BeiGene, Ltd., priority 2022, published 2025).

pIC50: −log10 of the molar value.

human IL-17A / human IL-17RA, sequence (Q16552 24-155): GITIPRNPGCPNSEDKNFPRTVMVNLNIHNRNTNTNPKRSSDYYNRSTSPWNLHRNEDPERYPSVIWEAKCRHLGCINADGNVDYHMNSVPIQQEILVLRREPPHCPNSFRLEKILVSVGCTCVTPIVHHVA

`Cc1nonc1C(=O)N[C@H](C(=O)Nc1ccc2c(c1)CC(c1nc3ccccc3[nH]1)(N1CC3(CC3)CNC1=O)C2)C1CCC(F)(F)CC1` (stereo partly drawn) [Example 184, N-((1S)-2-((2-(1H-benzo[d]imidazol-2-yl)-2-(6-oxo-5,7-diazaspiro[2.5]octan-5-yl)-2,3-dihydro-1H-inden-5-yl)amino)-1-(4,4-difluorocyclohexyl)-2-oxoethyl)-4-methyl-1,2,5-oxadiazole-3-carboxamide]: the results for the pIC50 in experiment [1] and in experiment [2] were 6.82 and 7.24, respectively.

On to `CNC(=O)C1(N2CC3(CC3)CNC2=O)Cc2cc3nc([C@@H](NC(=O)c4ccnn4C)C4CCCCC4)[nH]c3cc2C1` [Example 137, 2-((S)-cyclohexyl(1-methyl-1H-pyrazole-5-carboxamido)methyl)-N-methyl-6-(6-oxo-5,7-diazaspiro[2.5]octan-5-yl)-1,5,6,7-tetrahydroindeno[5,6-d]imidazole-6-carboxamide], for which the values for the pIC50 in experiment [1] and in experiment [2] were 6.38 and 5.83, respectively.

`COCC1(N2CC3(CC3)CNC2=O)Cc2ccc(NC(=O)[C@@H](NC(=O)c3ccnn3C(C)C)C(C3CC3)C3CC3)cc2C1` (stereo partly drawn) [Example 160, N-((2S)-1,1-dicyclopropyl-3-((2-(methoxymethyl)-2-(6-oxo-5,7-diazaspiro[2.5]octan-5-yl)-2,3-dihydro-1H-inden-5-yl)amino)-3-oxopropan-2-yl)-1-isopropyl-1H-pyrazole-5-carboxamide]: the values for the pIC50 in experiment [1] and in experiment [2] were 6.96 and 7.03, respectively.

Regarding `CNC(=O)C1(N2CC3(CCC3)CNC2=O)Cc2ccc(NC(=O)[C@@H](NC(=O)c3ccnn3C)C3CCCCC3)cc2C1` (stereo partly drawn) [Example 108, N-((1S)-1-cyclohexyl-2-((2-(methylcarbamoyl)-2-(7-oxo-6,8-diazaspiro[3.5]nonan-6-yl)-2,3-dihydro-1H-inden-5-yl)amino)-2-oxoethyl)-1-methyl-1H-pyrazole-5-carboxamide], the pIC50 is 8.24 in experiment [1] and 7.37 in experiment [2].

Turning to `CC(C)[C@@H]1CN(C2(C(=O)NCc3ccccn3)Cc3ccc(NC(=O)[C@@H](NC(=O)c4ccnn4C)C4CCCCC4)cc3C2)C(=O)N1` (stereo partly drawn) [Example 163, N-((1S)-1-cyclohexyl-2-((2-((R)-4-isopropyl-2-oxoimidazolidin-1-yl)-2-((pyridin-2-ylmethyl)carbamoyl)-2,3-dihydro-1H-inden-5-yl)amino)-2-oxoethyl)-1-methyl-1H-pyrazole-5-carboxamide], the pIC50 in experiment [1] is 7.72; in experiment [2], 7.41.

For the molecule `Cc1nonc1C(=O)N[C@H](C(=O)Nc1ccc2c(c1)CC(C(=O)Nc1c(F)cccc1Cl)(N1C[C@@H](C(C)C)NC1=O)C2)C(C1CC1)C1CC1` (stereo partly drawn) [Example 275, N-((2S)-1-((2-((2-chloro-6-fluorophenyl)carbamoyl)-2-((R)-4-isopropyl-2-oxoimidazolidin-1-yl)-2,3-dihydro-1H-inden-5-yl)amino)-3,3-dicyclopropyl-1-oxopropan-2-yl)-4-methyl-1,2,5-oxadiazole-3-carboxamide], the values for the pIC50 in experiment [1] and in experiment [2] were 7.21 and 6.87, respectively.

Consider `Cn1nccc1C(=O)N[C@H](C(=O)Nc1ccc2c(c1)CC(N1C[C@@H](C(F)(F)F)NC1=O)C2)C(C1CC1)C1CC1` (stereo partly drawn) [Example 197, N-((2S)-1,1-dicyclopropyl-3-oxo-3-((2-((S)-2-oxo-4-(trifluoromethyl)imidazolidin-1-yl)-2,3-dihydro-1H-inden-5-yl)amino)propan-2-yl)-1-methyl-1H-pyrazole-5-carboxamide], for which the pIC50 is 7.09 in experiment [1] and 6.40 in experiment [2].

With `CNC(=O)C1(N2CC3(CC3)CNC2=O)Cc2ccc(NC(=O)[C@@H](NC(=O)C(F)(F)c3ccc(C#N)n3C)C3CCCCC3)cc2C1` (stereo partly drawn) [Example 176, 5-((S)-2-(2-(5-cyano-1-methyl-1H-pyrrol-2-yl)-2,2-difluoroacetamido)-2-cyclohexylacetamido)-N-methyl-2-(6-oxo-5,7-diazaspiro[2.5]octan-5-yl)-2,3-dihydro-1H-indene-2-carboxamide], the results for the pIC50 in experiment [1] and in experiment [2] were 7.16 and 6.54, respectively.

With `Cc1nonc1C(=O)N[C@H](C(=O)Nc1ccc2c(c1)CC(C(=O)Nc1cnccc1Cl)(N1C[C@@H](C(C)C)NC1=O)C2)C(C1CC1)C1CC1` (stereo partly drawn) [Example 274, N-((2S)-1-((2-((4-chloropyridin-3-yl)carbamoyl)-2-((R)-4-isopropyl-2-oxoimidazolidin-1-yl)-2,3-dihydro-1H-inden-5-yl)amino)-3,3-dicyclopropyl-1-oxopropan-2-yl)-4-methyl-1,2,5-oxadiazole-3-carboxamide], the pIC50 in experiment [1] was 7.37; in experiment [2], 7.17.

In the case of `CNC(=O)C1(N2C[C@@H](C(C)C)NC2=O)Cc2ccc(NC(=O)[C@@H](NC(=O)c3ccccc3)C3CCCCC3)cc2C1` (stereo partly drawn) [Example 54, 5-((S)-2-benzamido-2-cyclohexylacetamido)-2-((R)-4-isopropyl-2-oxoimidazolidin-1-yl)-N-methyl-2,3-dihydro-1H-indene-2-carboxamide], the pIC50 in experiment [1] is 7.62; in experiment [2], 6.86.

Regarding `Cc1nonc1C(=O)N[C@H](C(=O)Nc1ccc2c(c1)CC(C(=O)Nc1ccncc1Cl)(N1C[C@@H](C(C)C)NC1=O)C2)C(C1CC1)C1CC1` (stereo partly drawn) [Example 284, N-((2S)-1-((2-((3-chloropyridin-4-yl)carbamoyl)-2-((R)-4-isopropyl-2-oxoimidazolidin-1-yl)-2,3-dihydro-1H-inden-5-yl)amino)-3,3-dicyclopropyl-1-oxopropan-2-yl)-4-methyl-1,2,5-oxadiazole-3-carboxamide], the pIC50 in experiment [1] was 6.57; in experiment [2] it was 6.45.

In the case of `Cn1nccc1C(=O)N[C@H](C(=O)Nc1ccc2c(c1)OCC(CN1CC(C(F)(F)F)NC1=O)C2)C1CCCCC1` (stereo partly drawn) [Example 291, N-((1S)-1-cyclohexyl-2-oxo-2-((3-(((S)-2-oxo-4-(trifluoromethyl)imidazolidin-1-yl)methyl)chroman-7-yl)amino)ethyl)-1-methyl-1H-pyrazole-5-carboxamide], the pIC50 in experiment [1] was 5.81; in experiment [2], 5.97.

As to `CCC1(C)CNC(=O)N(C2(C(=O)NC)Cc3ccc(NC(=O)[C@@H](NC(=O)c4ccnn4C)C4CCCCC4)cc3C2)C1` (stereo partly drawn) [Example 105, N-((1S)-1-cyclohexyl-2-((2-(5-ethyl-5-methyl-2-oxotetrahydropyrimidin-1(2H)-yl)-2-(methylcarbamoyl)-2,3-dihydro-1H-inden-5-yl)amino)-2-oxoethyl)-1-methyl-1H-pyrazole-5-carboxamide], the pIC50 in experiment [1] was 7.82; in experiment [2], 7.26.

Regarding `Cn1nccc1C(=O)N[C@H](C(=O)Nc1ccc2c(c1)CC(N1C[C@@H](C(F)(F)F)NC1=O)C2)C1CCCCC1` (stereo partly drawn) [Example 146, N-((1S)-1-cyclohexyl-2-oxo-2-((2-((S)-2-oxo-4-(trifluoromethyl)imidazolidin-1-yl)-2,3-dihydro-1H-inden-5-yl)amino)ethyl)-1-methyl-1H-pyrazole-5-carboxamide], the pIC50 in experiment [1] was 6.69; in experiment [2], 6.11.

In the case of `CC1CN(C2Cc3ccc(NC(=O)[C@@H](NC(=O)c4ccnn4C)C4CCCCC4)cc3C2)C(=O)N1` (stereo partly drawn) [Example 3, N-((1S)-1-cyclohexyl-2-((2-(4-methyl-2-oxoimidazolidin-1-yl)-2,3-dihydro-1H-inden-5-yl)amino)-2-oxoethyl)-1-methyl-1H-pyrazole-5-carboxamide], the pIC50 is 5.50 in experiment [1] and 5.07 in experiment [2].

As for `Cn1nccc1C(=O)N[C@H](C(=O)Nc1ccc2c(c1)CC(C(=O)NC13CC(C1)C3)(N1CC3(CC3)CNC1=O)C2)C1CCCCC1` (stereo partly drawn) [Example 182, N-((1S)-2-((2-(bicyclo[1.1.1]pentan-1-ylcarbamoyl)-2-(6-oxo-5,7-diazaspiro[2.5]octan-5-yl)-2,3-dihydro-1H-inden-5-yl)amino)-1-cyclohexyl-2-oxoethyl)-1-methyl-1H-pyrazole-5-carboxamide], the values for the pIC50 in experiment [1] and in experiment [2] were 7.57 and 7.28, respectively.

In the case of `CNC(=O)C1(N2CC(C(C)C(F)(F)F)NC2=O)Cc2ccc(NC(=O)[C@@H](NC(=O)c3ccnn3C)C3CCCCC3)cc2C1` (stereo partly drawn) [Example 81, N-((1S)-1-cyclohexyl-2-((2-(methylcarbamoyl)-2-(2-oxo-4-(1,1,1-trifluoropropan-2-yl)imidazolidin-1-yl)-2,3-dihydro-1H-inden-5-yl)amino)-2-oxoethyl)-1-methyl-1H-pyrazole-5-carboxamide], the pIC50 in experiment [1] was 7.12; in experiment [2] it was 6.15.

Regarding `Cn1nccc1C(=O)N[C@H](C(=O)Nc1ccc2oc(CN3C[C@@H](C(F)(F)F)NC3=O)cc2c1)C1CCCCC1` [Example 240, N-((S)-1-cyclohexyl-2-oxo-2-((2-(((S)-2-oxo-4-(trifluoromethyl)imidazolidin-1-yl)methyl)benzofuran-5-yl)amino)ethyl)-1-methyl-1H-pyrazole-5-carboxamide], the results for the pIC50 in experiment [1] and in experiment [2] were 6.70 and 6.58, respectively.

Take `CC[C@H]1CC[C@H]([C@H](NC(=O)c2ccnn2C)C(=O)Nc2ccc3c(c2)CC(COC)(N2CC4(CC4)CNC2=O)C3)CC1` (stereo partly drawn) [Example 165, N-((1S)-1-((1r,4S)-4-ethylcyclohexyl)-2-((2-(methoxymethyl)-2-(6-oxo-5,7-diazaspiro[2.5]octan-5-yl)-2,3-dihydro-1H-inden-5-yl)amino)-2-oxoethyl)-1-methyl-1H-pyrazole-5-carboxamide]: the figures for the pIC50 in experiment [1] and in experiment [2] were 6.76 and 6.49, respectively.
